{"source": "paper PMC5053573", "about": "“Structure-Based Design of Tetrahydroisoquinoline-7-carboxamides as Selective Discoidin Domain Receptor 1 (DDR1) Inhibitors” (Journal of Medicinal Chemistry, 2016)", "assay_in_all_cases": "biochemical", "conditions_in_all_cases": "read-out: %Ctrl @ 1000nM", "key": {"BRSK2": {"molecular_target": "BRSK2 (Homo sapiens, UniProt Q8IWQ3)"}, "MUSK": {"molecular_target": "MUSK (Homo sapiens, UniProt O15146)"}, "IRAK4": {"molecular_target": "IRAK4 (Homo sapiens, UniProt Q9NWZ3)"}, "BMPR1A": {"molecular_target": "BMPR1A (Homo sapiens, UniProt P36894)"}, "LIMK2": {"molecular_target": "LIMK2 (Homo sapiens, UniProt P53671)", "sequence (P53671 whole entry)": "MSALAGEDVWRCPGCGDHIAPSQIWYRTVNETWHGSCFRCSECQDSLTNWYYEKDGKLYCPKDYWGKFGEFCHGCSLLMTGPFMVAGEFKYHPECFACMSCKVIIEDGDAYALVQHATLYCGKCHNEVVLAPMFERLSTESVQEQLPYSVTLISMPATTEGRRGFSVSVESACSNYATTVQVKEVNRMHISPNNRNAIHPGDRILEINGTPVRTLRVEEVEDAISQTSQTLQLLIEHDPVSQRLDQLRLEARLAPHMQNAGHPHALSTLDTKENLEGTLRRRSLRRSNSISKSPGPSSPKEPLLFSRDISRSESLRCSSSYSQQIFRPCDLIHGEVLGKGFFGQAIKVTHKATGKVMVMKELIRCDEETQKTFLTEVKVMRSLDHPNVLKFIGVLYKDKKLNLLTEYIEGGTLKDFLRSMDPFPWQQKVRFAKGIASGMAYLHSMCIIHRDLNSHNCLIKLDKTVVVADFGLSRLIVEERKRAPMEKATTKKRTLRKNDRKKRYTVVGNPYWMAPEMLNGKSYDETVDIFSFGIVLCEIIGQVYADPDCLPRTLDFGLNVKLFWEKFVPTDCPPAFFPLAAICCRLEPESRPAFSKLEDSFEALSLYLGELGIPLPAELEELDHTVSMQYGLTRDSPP"}, "MAP3K15": {"molecular_target": "MAP3K15 (Homo sapiens, UniProt Q6ZN16)"}, "CDKL2": {"molecular_target": "CDKL2 (Homo sapiens, UniProt Q92772)"}, "BRSK1": {"molecular_target": "BRSK1 (Homo sapiens, UniProt Q8TDC3)"}, "JNK3": {"molecular_target": "T1, JNK3 (Homo sapiens, UniProt P53779)", "T1 construct": "gene MAPK10"}, "NIM1": {"molecular_target": "T2, NIM1 (Homo sapiens, UniProt Q8IY84)", "T2 construct": "gene NIM1K"}, "EGFR(T790M)": {"molecular_target": "EGFR(T790M) (Homo sapiens, UniProt P00533, T790M)"}, "[1]": {"molecular_target": "ABL1(F317I)-nonphosphorylated (Homo sapiens, UniProt P00519, F317I)"}, "TAOK1": {"molecular_target": "TAOK1 (Homo sapiens, UniProt Q7L7X3)"}, "ABL1-nonphosphorylated": {"molecular_target": "ABL1-nonphosphorylated (Homo sapiens, UniProt P00519)"}, "CSNK1A1": {"molecular_target": "CSNK1A1 (Homo sapiens, UniProt P48729)"}, "ERBB4": {"molecular_target": "ERBB4 (Homo sapiens, UniProt Q15303)", "sequence (Q15303 whole entry)": "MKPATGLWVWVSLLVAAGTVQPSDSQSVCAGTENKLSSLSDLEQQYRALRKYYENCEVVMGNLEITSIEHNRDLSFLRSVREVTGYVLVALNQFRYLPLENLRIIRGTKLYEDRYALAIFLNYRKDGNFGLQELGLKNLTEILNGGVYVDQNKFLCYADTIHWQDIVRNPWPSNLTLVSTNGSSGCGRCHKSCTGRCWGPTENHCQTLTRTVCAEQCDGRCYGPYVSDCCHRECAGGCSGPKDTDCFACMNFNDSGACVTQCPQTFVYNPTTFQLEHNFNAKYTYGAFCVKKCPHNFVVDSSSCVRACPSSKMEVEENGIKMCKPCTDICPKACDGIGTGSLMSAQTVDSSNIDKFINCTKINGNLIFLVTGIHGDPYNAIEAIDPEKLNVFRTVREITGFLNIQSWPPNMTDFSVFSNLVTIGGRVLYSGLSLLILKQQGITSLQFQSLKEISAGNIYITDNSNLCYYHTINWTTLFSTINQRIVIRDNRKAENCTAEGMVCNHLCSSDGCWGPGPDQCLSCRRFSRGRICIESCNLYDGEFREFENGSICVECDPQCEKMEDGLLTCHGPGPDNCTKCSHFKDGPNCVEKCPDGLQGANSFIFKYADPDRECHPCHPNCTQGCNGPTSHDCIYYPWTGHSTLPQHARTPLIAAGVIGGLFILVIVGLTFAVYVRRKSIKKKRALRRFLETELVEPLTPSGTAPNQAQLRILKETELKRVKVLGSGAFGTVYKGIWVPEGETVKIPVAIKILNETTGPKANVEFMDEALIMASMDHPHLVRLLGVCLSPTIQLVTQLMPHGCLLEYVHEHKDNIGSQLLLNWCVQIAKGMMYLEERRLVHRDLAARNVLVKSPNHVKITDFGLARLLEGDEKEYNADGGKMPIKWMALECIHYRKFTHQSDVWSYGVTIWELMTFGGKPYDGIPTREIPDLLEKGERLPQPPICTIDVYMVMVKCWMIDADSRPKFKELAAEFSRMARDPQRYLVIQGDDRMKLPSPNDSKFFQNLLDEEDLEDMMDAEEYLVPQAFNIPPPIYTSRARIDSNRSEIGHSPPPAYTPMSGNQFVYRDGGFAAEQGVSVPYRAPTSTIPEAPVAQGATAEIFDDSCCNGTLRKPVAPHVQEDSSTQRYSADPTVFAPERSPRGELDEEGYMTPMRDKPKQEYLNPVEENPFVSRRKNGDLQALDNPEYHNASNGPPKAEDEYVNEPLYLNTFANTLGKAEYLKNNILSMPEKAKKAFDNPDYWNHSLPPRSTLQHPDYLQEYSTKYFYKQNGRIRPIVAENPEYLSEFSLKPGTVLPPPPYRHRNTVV"}, "PCTK2": {"molecular_target": "T3, PCTK2 (Homo sapiens, UniProt Q00537)", "T3 construct": "gene CDK17"}, "p38-gamma": {"molecular_target": "T4, p38-gamma (Homo sapiens, UniProt P53778)", "T4 construct": "gene MAPK12"}, "AURKA": {"molecular_target": "AURKA (Homo sapiens, UniProt O14965)"}, "GCN2(Kin.Dom.2,S808G)": {"molecular_target": "T5, GCN2(Kin.Dom.2,S808G) (Homo sapiens, UniProt Q9P2K8, S808G)", "T5 construct": "gene EIF2AK4"}, "GRK4": {"molecular_target": "GRK4 (Homo sapiens, UniProt P32298)"}, "SGK": {"molecular_target": "T6, SGK (Homo sapiens, UniProt O00141)", "T6 construct": "gene SGK1"}, "NEK5": {"molecular_target": "NEK5 (Homo sapiens, UniProt Q6P3R8)", "sequence (Q6P3R8 whole entry)": "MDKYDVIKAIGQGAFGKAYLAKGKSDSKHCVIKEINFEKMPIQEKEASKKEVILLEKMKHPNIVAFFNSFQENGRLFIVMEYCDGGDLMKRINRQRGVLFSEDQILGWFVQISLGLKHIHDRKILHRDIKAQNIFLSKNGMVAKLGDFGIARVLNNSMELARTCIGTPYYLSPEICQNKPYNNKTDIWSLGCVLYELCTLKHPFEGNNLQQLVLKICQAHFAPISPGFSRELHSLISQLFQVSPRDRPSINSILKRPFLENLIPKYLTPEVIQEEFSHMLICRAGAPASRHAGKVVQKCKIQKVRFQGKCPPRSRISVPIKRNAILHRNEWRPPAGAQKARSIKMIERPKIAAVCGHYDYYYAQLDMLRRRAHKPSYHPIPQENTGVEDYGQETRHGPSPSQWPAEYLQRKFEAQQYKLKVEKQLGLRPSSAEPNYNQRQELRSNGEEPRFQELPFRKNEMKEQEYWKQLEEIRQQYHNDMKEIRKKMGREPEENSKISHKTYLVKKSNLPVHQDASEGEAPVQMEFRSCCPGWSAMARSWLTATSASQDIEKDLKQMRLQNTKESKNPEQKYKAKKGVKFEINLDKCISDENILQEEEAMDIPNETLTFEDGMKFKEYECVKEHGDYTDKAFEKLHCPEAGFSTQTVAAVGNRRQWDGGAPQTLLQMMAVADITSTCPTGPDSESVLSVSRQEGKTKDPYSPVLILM"}, "NDR1": {"molecular_target": "T7, NDR1 (Homo sapiens, UniProt Q15208)", "T7 construct": "gene STK38"}, "SgK110": {"molecular_target": "T8, SgK110 (Homo sapiens, UniProt P0C264)", "T8 construct": "gene SBK3"}, "ERK1": {"molecular_target": "T9, ERK1 (Homo sapiens, UniProt P27361)", "T9 construct": "gene MAPK3"}, "PDPK1": {"molecular_target": "PDPK1 (Homo sapiens, UniProt O15530)"}, "PIM2": {"molecular_target": "PIM2 (Homo sapiens, UniProt Q9P1W9)", "sequence (Q9P1W9 whole entry)": "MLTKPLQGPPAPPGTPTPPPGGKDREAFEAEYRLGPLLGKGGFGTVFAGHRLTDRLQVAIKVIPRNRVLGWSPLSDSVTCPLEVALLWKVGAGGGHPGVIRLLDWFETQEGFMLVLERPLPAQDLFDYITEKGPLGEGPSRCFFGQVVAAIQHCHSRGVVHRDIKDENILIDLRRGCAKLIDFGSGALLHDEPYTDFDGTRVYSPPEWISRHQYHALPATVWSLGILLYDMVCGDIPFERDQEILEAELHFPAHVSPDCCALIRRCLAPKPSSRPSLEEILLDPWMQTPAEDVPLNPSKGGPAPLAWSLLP"}, "CAMKK1": {"molecular_target": "CAMKK1 (Homo sapiens, UniProt Q8N5S9)", "sequence (Q8N5S9 whole entry)": "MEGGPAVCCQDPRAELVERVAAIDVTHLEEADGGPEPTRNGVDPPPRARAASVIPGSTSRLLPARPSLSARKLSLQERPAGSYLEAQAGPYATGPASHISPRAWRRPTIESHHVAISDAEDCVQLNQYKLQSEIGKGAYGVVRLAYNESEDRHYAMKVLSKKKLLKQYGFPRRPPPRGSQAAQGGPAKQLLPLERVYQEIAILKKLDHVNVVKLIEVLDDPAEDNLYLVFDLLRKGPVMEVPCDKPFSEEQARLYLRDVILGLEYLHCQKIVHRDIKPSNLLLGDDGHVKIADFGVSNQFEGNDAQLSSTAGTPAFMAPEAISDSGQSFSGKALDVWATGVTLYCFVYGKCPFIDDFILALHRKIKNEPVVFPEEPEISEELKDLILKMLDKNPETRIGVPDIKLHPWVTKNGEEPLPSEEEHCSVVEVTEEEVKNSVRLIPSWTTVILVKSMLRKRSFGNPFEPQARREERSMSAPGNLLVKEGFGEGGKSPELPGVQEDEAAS"}, "HIPK2": {"molecular_target": "HIPK2 (Homo sapiens, UniProt Q9H2X6)"}, "NEK7": {"molecular_target": "NEK7 (Homo sapiens, UniProt Q8TDX7)"}, "PLK2": {"molecular_target": "PLK2 (Homo sapiens, UniProt Q9NYY3)"}, "MAK": {"molecular_target": "MAK (Homo sapiens, UniProt P20794)"}, "DDR2": {"molecular_target": "DDR2 (Homo sapiens, UniProt Q16832)"}, "ALK(C1156Y)": {"molecular_target": "ALK(C1156Y) (Homo sapiens, UniProt Q9UM73, C1156Y)", "sequence (Q9UM73 whole entry C1156Y)": "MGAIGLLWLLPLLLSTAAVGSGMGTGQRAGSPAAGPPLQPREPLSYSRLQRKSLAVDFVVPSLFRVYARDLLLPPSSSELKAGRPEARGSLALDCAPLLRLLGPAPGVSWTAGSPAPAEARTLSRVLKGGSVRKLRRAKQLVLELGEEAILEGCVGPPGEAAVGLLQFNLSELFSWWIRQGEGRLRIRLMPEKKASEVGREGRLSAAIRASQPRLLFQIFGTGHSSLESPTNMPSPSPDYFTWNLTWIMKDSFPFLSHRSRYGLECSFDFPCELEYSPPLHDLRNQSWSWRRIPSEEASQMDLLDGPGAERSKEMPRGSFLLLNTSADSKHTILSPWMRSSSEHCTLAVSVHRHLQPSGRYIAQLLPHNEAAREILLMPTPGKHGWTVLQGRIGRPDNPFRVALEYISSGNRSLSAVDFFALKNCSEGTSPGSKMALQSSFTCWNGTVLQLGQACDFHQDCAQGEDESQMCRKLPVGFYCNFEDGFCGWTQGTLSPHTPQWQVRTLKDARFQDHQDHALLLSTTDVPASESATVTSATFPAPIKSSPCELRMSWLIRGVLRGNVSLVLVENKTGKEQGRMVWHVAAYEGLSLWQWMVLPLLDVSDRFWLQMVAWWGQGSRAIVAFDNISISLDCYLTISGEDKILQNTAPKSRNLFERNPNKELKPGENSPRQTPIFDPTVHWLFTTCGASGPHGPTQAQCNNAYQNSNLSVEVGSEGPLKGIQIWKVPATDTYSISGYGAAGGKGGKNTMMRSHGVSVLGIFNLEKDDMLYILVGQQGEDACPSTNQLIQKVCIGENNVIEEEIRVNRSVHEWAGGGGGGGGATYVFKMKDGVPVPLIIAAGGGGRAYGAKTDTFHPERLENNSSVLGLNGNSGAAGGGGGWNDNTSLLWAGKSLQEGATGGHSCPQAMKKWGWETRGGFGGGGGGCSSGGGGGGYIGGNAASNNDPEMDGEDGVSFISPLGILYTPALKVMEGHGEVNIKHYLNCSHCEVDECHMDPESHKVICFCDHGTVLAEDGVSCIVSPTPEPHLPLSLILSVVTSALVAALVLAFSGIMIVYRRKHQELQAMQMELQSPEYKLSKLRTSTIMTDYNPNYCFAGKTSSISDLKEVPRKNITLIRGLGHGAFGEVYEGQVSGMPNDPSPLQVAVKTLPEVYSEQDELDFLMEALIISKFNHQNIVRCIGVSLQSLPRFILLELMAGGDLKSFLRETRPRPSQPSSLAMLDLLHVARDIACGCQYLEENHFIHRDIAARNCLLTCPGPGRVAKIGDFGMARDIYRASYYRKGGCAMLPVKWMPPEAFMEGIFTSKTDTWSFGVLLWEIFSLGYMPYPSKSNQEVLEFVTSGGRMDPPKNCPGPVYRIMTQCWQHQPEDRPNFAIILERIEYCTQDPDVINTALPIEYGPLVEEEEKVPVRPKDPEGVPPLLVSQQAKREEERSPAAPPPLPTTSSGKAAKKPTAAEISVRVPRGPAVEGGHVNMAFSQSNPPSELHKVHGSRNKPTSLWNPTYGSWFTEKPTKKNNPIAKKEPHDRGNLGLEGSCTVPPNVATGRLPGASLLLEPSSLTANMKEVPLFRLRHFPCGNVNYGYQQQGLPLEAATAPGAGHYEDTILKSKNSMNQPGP"}}, "data": [{"compound": "Cc1cn(-c2cc(NC(=O)c3ccc4c(c3)CN(c3cncnc3)C[C@@H]4C)cc(C(F)(F)F)c2)cn1", "note": "[Compound 6j]", "values": [{"measurement": "remaining activity at 1 µM", "setting": "BRSK2", "value": 94, "unit": "%"}, {"measurement": "remaining activity at 1 µM", "setting": "MUSK", "value": 31, "unit": "%"}, {"measurement": "remaining activity at 1 µM", "setting": "IRAK4", "value": 100, "unit": "%"}, {"measurement": "remaining activity at 1 µM", "setting": "BMPR1A", "value": 93, "unit": "%"}, {"measurement": "remaining activity at 1 µM", "setting": "LIMK2", "value": 100, "unit": "%"}, {"measurement": "remaining activity at 1 µM", "setting": "MAP3K15", "value": 100, "unit": "%"}, {"measurement": "remaining activity at 1 µM", "setting": "CDKL2", "value": 93, "unit": "%"}, {"measurement": "remaining activity at 1 µM", "setting": "BRSK1", "value": 98, "unit": "%"}, {"measurement": "remaining activity at 1 µM", "setting": "JNK3", "value": 100, "unit": "%"}, {"measurement": "remaining activity at 1 µM", "setting": "NIM1", "value": 100, "unit": "%"}, {"measurement": "remaining activity at 1 µM", "setting": "EGFR(T790M)", "value": 100, "unit": "%"}, {"measurement": "remaining activity at 1 µM", "setting": "[1]", "value": 80, "unit": "%"}, {"measurement": "remaining activity at 1 µM", "setting": "TAOK1", "value": 100, "unit": "%"}, {"measurement": "remaining activity at 1 µM", "setting": "ABL1-nonphosphorylated", "value": 13, "unit": "%"}, {"measurement": "remaining activity at 1 µM", "setting": "CSNK1A1", "value": 57, "unit": "%"}, {"measurement": "remaining activity at 1 µM", "setting": "ERBB4", "value": 100, "unit": "%"}, {"measurement": "remaining activity at 1 µM", "setting": "PCTK2", "value": 96, "unit": "%"}, {"measurement": "remaining activity at 1 µM", "setting": "p38-gamma", "value": 79, "unit": "%"}, {"measurement": "remaining activity at 1 µM", "setting": "AURKA", "value": 96, "unit": "%"}, {"measurement": "remaining activity at 1 µM", "setting": "GCN2(Kin.Dom.2,S808G)", "value": 100, "unit": "%"}, {"measurement": "remaining activity at 1 µM", "setting": "GRK4", "value": 100, "unit": "%"}, {"measurement": "remaining activity at 1 µM", "setting": "SGK", "value": 100, "unit": "%"}, {"measurement": "remaining activity at 1 µM", "setting": "NEK5", "value": 95, "unit": "%"}, {"measurement": "remaining activity at 1 µM", "setting": "NDR1", "value": 98, "unit": "%"}, {"measurement": "remaining activity at 1 µM", "setting": "SgK110", "value": 98, "unit": "%"}, {"measurement": "remaining activity at 1 µM", "setting": "ERK1", "value": 95, "unit": "%"}, {"measurement": "remaining activity at 1 µM", "setting": "PDPK1", "value": 84, "unit": "%"}, {"measurement": "remaining activity at 1 µM", "setting": "PIM2", "value": 97, "unit": "%"}, {"measurement": "remaining activity at 1 µM", "setting": "CAMKK1", "value": 64, "unit": "%"}, {"measurement": "remaining activity at 1 µM", "setting": "HIPK2", "value": 100, "unit": "%"}, {"measurement": "remaining activity at 1 µM", "setting": "NEK7", "value": 87, "unit": "%"}, {"measurement": "remaining activity at 1 µM", "setting": "PLK2", "value": 100, "unit": "%"}, {"measurement": "remaining activity at 1 µM", "setting": "MAK", "value": 95, "unit": "%"}, {"measurement": "remaining activity at 1 µM", "setting": "DDR2", "value": 0.35, "unit": "%"}, {"measurement": "remaining activity at 1 µM", "setting": "ALK(C1156Y)", "value": 100, "unit": "%"}]}]}
